Test results from US20180312493A1, “Antibiotic Compounds, Pharmaceutical Formulations Thereof And Methods And Uses Therefor” (Simon Fraser University, priority 2015, published 2018).
Values after ≈ are worked out from the molar mass of the structure shown. Where two headings read alike, the source gives them in different places.

What was measured:
VRE#2 (2010A) = assay: In vitro susceptibility, broth microdilution (MIC); assay type: cell-based, vancomycin resistant Enterococci; settings: VRE#2 (2010A); read-out: Antimicrobial activity (MIC) VRE#2
Text: (§1) Epidemic methicillin resistant S. aureus (MRSA) strain sequenced at the Sanger Centre (MRSA252, NRS71) was obtained from NARSA (Network on Antimicrobial Resistance in S. aureus). Methicillin sensitive S. aureus (ATCC 29213 and 25923), methicillin resistant S. aureus (ATCC BAA-1762), and Salmonella typhimurium (ATCC BAA-185) were obtained from ATCC, The Global Bioresource Center. Acinetobacter baumannii (ATCC 19606 and ATCC 17978), Klebsiella pneumonia (C238), vancomycin resistant Enterococci #2 (2010A) (VRE#2), MRSA (USA400, MW2) and Pseudomonas aeruginosa (PA0-1) were obtained from the laboratory of Dr B. B. Finlay at the University of British Columbia (Vancouver, Canada).
(§2) The antimicrobial activities of PK inhibitor candidates were determined using the 96-well microtiter standard 2-fold serial broth microdilution method as described by CLSI (formerly NCCLS) with the various gram-positive and gram-negative bacteria species mentioned above. Bacteria from a single colony were grown, overnight in either BHI Broth (VRE), mueller hinton broth (S. aureus 29213; MRSA USA400, A. baumannii 19606, MRSA BAA-1762) or L-broth (P. aeruginosa, S. typhimurium, K. pneumonia and A. baumannii 17978). Each compound was prepared in DMSO with 2-fold serial dilutions to give a final concentration of, 0.031 to 64 μg/ml. 10 μl of the compound solution was then added, in duplicate, to either, 190 μl of cation adjusted mueller hinton broth (CAMHB) or 190 μl CAMHB containing ˜2.5×10^5 CFU/ml of bacteria (final compound concentration 0.031 to 64 μg/ml). Culture plates were incubated for 18-24 h at 37° C., and optical density at 600 nm (OD600) was measured using a Benchmark Plus™ microplate spectrophotometer (Bio-Rad™). The absorbance control values for the series containing CAMHB and inhibitor were subtracted as background from the corresponding infected wells. Minimal inhibitory concentration (MIC) was defined as the lowest concentration of test compound leading to complete inhibition of cell growth in relation to compound-free control wells as determined by optical density. Vancomycin, methicillin and ciprofloxicin were used as reference compounds. All assays were run in triplicate or duplicate. Experiments were replicated at least twice to verify reproducibility using the above conditions.

S. aureus (ATCC29213) = assay: In vitro susceptibility, broth microdilution (MIC); assay type: cell-based; settings: Staphylococcus aureus
In short: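 CLSI 2-fold serial broth microdilution; K. pneumoniae C238 grown in L-broth, S. aureus ATCC 29213 in Mueller Hinton broth, plates incubated 18–24 h at 37 °C. MIC taken as lowest concentration giving complete growth inhibition by OD600 versus compound-free wells, background-subtracted.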

MRSA Pyk = biological target: T1, MRSA Pyk (Staphylococcus aureus, UniProt Q6GG09); assay: MRSA pyruvate kinase (PK) activity, continuous LDH-coupled assay; assay type: biochemical, methicillin resistant S. aureus (MRSA252)
T1 construct: made in house; host or cells: E. coli BL-21 (DE3)
In short: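 His-tagged MRSA PK (strain Sanger 252) and human PK isoforms expressed in E. coli BL-21 (DE3) and Ni-NTA purified, used at 15 nM in an LDH-coupled assay following NADH oxidation at 340 nm, 30° C, up to 5 min, ≤1% DMSO. IC50 from four-parameter variable-slope fit; Ki with PEP 2-20 mM, ADP fixed 2 mM, inhibitor 0-400 nM.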

MRSA (ATCC BAA-1762) = assay: In vitro susceptibility, broth microdilution (MIC); assay type: cell-based, methicillin resistant S. aureus; settings: Staphylococcus aureus; MRSA ATCC BAA-1762; read-out: Antimicrobial activity (MIC) MRSA ATCC BAA1762
Text: as §1, §2

[1] = S. aureus ATCC29213, 18-24 h, 37 C, read-out: Antimicrobial activity (MIC) S. aureus ATCC29213

Row | MIC (MRSA (ATCC BAA-1762)) | SMILES | MIC (VRE#2 (2010A)) | MIC (S. aureus (ATCC29213); [1]) | IC50 (MRSA Pyk) | MIC (S. aureus (ATCC29213); ATCC29213, read-out: Antimicrobial activity (MIC) S. aureus ATCC29213)
1 | – | CCCC(=O)OC1CCN(CCNC(=O)c2c(/C=C/c3ccc(Cl)cc3)[nH]c3cc(Br)ccc23)CC1 [Compound 57, (E)-1-(2-(6-Bromo-2-(4-chlorostyryl)-1H-indole-3-carboxamido)ethyl)piperidin-4-yl Butyrate] | > 64 µg/mL | > 64 µg/mL | 100 to 1000 nM | –
2 | – | CN(C)C(=O)c1cc(Br)cc2[nH]c(/C=C/c3ccc(Cl)cc3)cc12 [Compound 64, (E)-6-Bromo-2-(4-chlorostyryl)-N,N-dimethyl-1H-indole-4-carboxamide] | – | > 64 µg/mL | < 100 nM | –
3 | – | FC(F)(F)c1c(/C=C/c2ccc(Cl)cc2)[nH]c2cc(Br)ccc12 [Compound 65, (E)-6-Bromo-2-(4-chlorostyryl)-3-(trifluoromethyl)-1H-indole] | – | 1 µg/mL (≈ 2.5 µM) | < 100 nM | –
4 | – | FC(F)(F)c1c(CCc2ccc(Cl)cc2)[nH]c2cc(Br)ccc12 [Compound 66, 6-Bromo-2-(4-chlorophenethyl)-3-(trifluoromethyl)-1H-indole] | – | 2 µg/mL (≈ 4.97 µM) | 100 to 1000 nM | –
5 | – | N#Cc1c(/C=C/c2ccc(Cl)cc2)[nH]c2cc(Br)ccc12 [Compound 67, (E)-6-Bromo-2-(4-chlorostyryl)-1H-indole-3-carbonitrile] | – | > 64 µg/mL | > 1000 nM | –
6 | – | NC(=NO)c1c(/C=C/c2ccc(Cl)cc2)[nH]c2cc(Br)ccc12 [Compound 68, 6-Bromo-2-((E)-4-chlorostyryl)-N′-hydroxy-1H-indole-3-carboximidamide] | – | 8 µg/mL (≈ 20.5 µM) | < 100 nM | –
7 | – | Clc1ccc(/C=C/c2[nH]c3cc(Br)ccc3c2-c2nn[nH]n2)cc1 [Compound 69, (E)-6-Bromo-2-(4-chlorostyryl)-3-(2H-tetrazol-5-yl)-1H-indole] | – | 16 µg/mL (≈ 39.9 µM) | < 100 nM | –
8 | – | NS(=O)(=O)c1c(CCc2ccc(Cl)cc2)[nH]c2cc(Br)ccc12 [Compound 70, 6-Bromo-2-(4-chlorophenethyl)-1H-indole-3-sulfonamide] | – | > 64 µg/mL | > 1000 nM | –
9 | – | O=C1NCCn2c(cc3cc(Cl)ccc32)-c2[nH]c3cc(Br)ccc3c21 [Compound 74, 12-Bromo-2-chloro-7,8-dihydro-6H-[1,4]diazocino[1,8-a:7,6-b′]diindol-9(14H)-one] | 64 µg/mL (≈ 154 µM) | 32 µg/mL (≈ 77.2 µM) | < 100 nM | –
10 | – | O=C(c1c(-c2cc3ccccc3s2)[nH]c2cc(Br)ccc12)N1CCOCC1 [Compound 75] | – | > 64 µg/mL | > 1000 nM | –
11 | – | O=C(c1c(-c2cc3ccccc3[nH]2)[nH]c2cc(Br)ccc12)N1CCOCC1 [Compound 76, (6-Bromo-1H,1′H-[2,2′-biindol]-3-yl)(morpholino)methanone] | – | > 64 µg/mL | > 1000 nM | –
12 | – | CC(C)(C)OC(=O)N1CCN(CCNC(=O)c2c(C(=O)Nc3ccc(Cl)cc3)[nH]c3cc(Br)ccc23)CC1 [Compound 78, tert-Butyl 4-(2-(6-bromo-2-((4-chlorophenyl)carbamoyl)-1H-indole-3-carboxamido)ethyl)piperazine-1-carboxylate] | – | > 64 µg/mL | < 100 nM | –
13 | – | CN1CCN(CCNC(=O)c2c(C(=O)Nc3ccc(Cl)cc3)[nH]c3cc(Br)ccc23)CC1 [Compound 79, 6-Bromo-N2-(4-chlorophenyl)-N3-(2-(4-methylpiperazin-1-yl)ethyl)-1 H-indole-2,3-dicarboxamide] | – | > 64 µg/mL | < 100 nM | –
14 | – | O=C(Nc1ccc(Cl)cc1)c1[nH]c2cc(Br)ccc2c1C(=O)NCCN1CCNCC1 [Compound 80, 6-Bromo-N2-(4-chlorophenyl)-N3-(2-(piperazin-1-yl)ethyl)-1H-indole-2,3-dicarboxamide] | – | > 64 µg/mL | < 100 nM | –
15 | – | CN(C)CCNC(=O)c1c(C(=O)Nc2ccc(Cl)cc2)[nH]c2cc(Br)ccc12 [Compound 81, 6-Bromo-N2-(4-chlorophenyl)-N3-(2-(dimethylamino)ethyl)-1H-indole-2,3-dicarboxamide] | – | > 64 µg/mL | < 100 nM | –
16 | – | CN(C)CCOC(=O)c1c(C(=O)Nc2ccc(Cl)cc2)[nH]c2cc(Br)ccc12 [Compound 82, 2-(Dimethylamino)ethyl 6-bromo-2-((4-chlorophenyl)carbamoyl)-1 H-indole-3-carboxylate] | – | > 64 µg/mL | < 100 nM | –
17 | – | O=C(O)C(=O)c1c(/C=C/c2ccc(Cl)cc2)[nH]c2cc(Br)ccc12 [Compound 85, (E)-2-(6-bromo-2-(4-chlorostyryl)-1H-indol-3-yl)-2-oxoacetic Acid] | – | > 64 µg/mL | 100 to 1000 nM | –
18 | – | Nc1c(/C=C/c2ccc(Cl)cc2)[nH]c2cc(Br)ccc12 [Compound 92, (E)-6-bromo-2-(4-chlorostyryl)-1H-indol-3-amine] | 32 µg/mL (≈ 92 µM) | 64 µg/mL (≈ 184 µM) | < 100 nM | –
19 | – | NC(=O)[C@@H]1CCCN1CCCCNC(=O)c1c(-c2cc3cc(Cl)ccc3[nH]2)[nH]c2cc(Br)ccc12 [Compound 116, (S)-6-Bromo-N-(4-(2-carbamoylpyrrolidin-1-yl)butyl)-5′-chloro-1H,1′H-[2,2′-biindole]-3-carboxamide] | – | > 64 µg/mL | < 100 nM | –
20 | 0.5 µg/mL (≈ 1.31 µM) | O=C(Nc1ccc(Cl)cc1)Nc1nc2cc(Br)ccc2s1 [Compound 141, 1-(5-bromobenzo[d]thiazol-2-yl)-3-(4-chlorophenyl)urea] | – | 0.5 µg/mL (≈ 1.31 µM) | – | –
21 | 2 µg/mL (≈ 6.29 µM) | Cc1ccc2sc(NC(=O)Nc3ccc(Cl)cc3)nc2c1 [Compound 170, 1-(4-chlorophenyl)-3-(5-methylbenzo[d]thiazol-2-yl)urea] | – | 4 µg/mL (≈ 12.6 µM) | – | –
22 | 16 µg/mL (≈ 59 µM) | CC(=O)Nc1nc2cc(Br)ccc2s1 [Compound 175, N-(5-bromobenzo[d]thiazol-2-yl)acetamide] | 32 µg/mL (≈ 118 µM) | 32 µg/mL (≈ 118 µM) | – | –
23 | 0.5 µg/mL (≈ 1.13 µM) | COC(=O)c1c(NS(=O)(=O)c2ccc(Cl)cc2)[nH]c2cc(Br)ccc12 [Compound 182, Methyl 6-bromo-2-((4-chlorophenyl)sulfonamido)-1H-indole-3-carboxylate] | 64 µg/mL (≈ 144 µM) | 8 µg/mL (≈ 18 µM) | – | –
24 | – | CC(C)(C)OC(=O)COc1cc2[nH]c(-c3cc4ccc(Br)cc4[nH]3)cc2cc1Cl [Compound 186, tert-Butyl 2-((6′-bromo-5-chloro-1H,1′H-[2,2′-biindol]-6-yl)oxy)acetate] | – | > 64 µg/mL | < 100 nM | –
25 | – | O=C(O)COc1cc2[nH]c(-c3cc4ccc(Br)cc4[nH]3)cc2cc1Cl [Compound 187, 2-((6′-Bromo-5-chloro-1H,1′H-[2,2′-biindol]-6-yl)oxy)acetic Acid] | – | 64 µg/mL (≈ 153 µM) | < 100 nM | –
26 | – | CS(=O)(=O)OCCOc1cc2[nH]c(-c3cc4ccc(Br)cc4[nH]3)cc2cc1Cl [Compound 198, 2-((6′-Bromo-5-chloro-1H,1′H-[2,2′-biindol]-6-yl)oxy)ethyl Methanesulfonate] | – | – | < 100 nM | > 64 µg/mL
27 | – | O=C(NCCN1CCN[C@H](C(=O)O)C1)c1c(-c2cc3cc(Cl)ccc3[nH]2)[nH]c2cc(Br)ccc12 [Compound 229, (S)-4-(2-(6-bromo-5′-chloro-1H,1′H-[2,2′-biindole]-3-carboxamido)ethyl)piperazine-2-carboxylic Acid] | – | > 64 µg/mL | < 100 nM | –

Row | SMILES | MIC (MRSA (ATCC BAA-1762)) | MIC (VRE#2 (2010A)) | MIC (S. aureus (ATCC29213); [1]) | IC50 (MRSA Pyk) | MIC (S. aureus (ATCC29213); ATCC29213, read-out: Antimicrobial activity (MIC) S. aureus ATCC29213)
28 | C[C@@H]1CN(CCNC(=O)c2c(-c3cc4cc(Cl)ccc4[nH]3)[nH]c3cc(Br)ccc23)[C@@H](C)CN1C [Compound 122, 6-Bromo-5′-chloro-N-(2-((2S,5R)-2,4,5-trimethylpiperazin-1-yl)ethyl)-1H,1′H-[2,2′-biindole]-3-carboxamide] | 8 µg/mL (≈ 14.7 µM) | 8 µg/mL (≈ 14.7 µM) | 8 µg/mL (≈ 14.7 µM) | < 100 nM | –
